The source of these data is US10239836B2, “Benzenecarbothioccyclopenta[c] pyrrole-1,3-dione compounds and process for synthesis thereof” (Council of Scientific & Industrial Research, priority 2014, dated 2019).

Series [1] can be described thus: Cytotoxicity assay (MTT viability). The series is classed as cell-based, Mouse. The settings on record: mouse; RAW 264.7 cells, MTT, 24 h treatment, serum free. The procedure: (§1) Mouse macrophage cell line RAW 264.7 was maintained in laboratory at 37° C. in
(§2) RPMI-1640 media supplemented with 10% heat-inactivated fetal bovine serum (FBS) and penicillin/streptomycin.
Viability of cultured cells was determined by (4,5-dimethylthiazol-2-yl)-2,5-diphenyltetrazolium bromide (MTT; Sigma) as described earlier (1). RAW 264.7 was seeded in triplicate at a density of 2×10^4 cells per well on a 96-well plate. […] MTT solution (0.5 mg/ml) was then added to each well and incubate for 4 h at 37° C. At the end of the incubation period, the medium was removed and the resulting purple formazan was solubilized with acidic isopropanol (0.1 N HCl in absolute isopropanol), and the absorbance was read at 570 nm using Biorad Microplate reader (Biorad, USA).

Series [2] concerns LPS induced NO generation in RAW 264.7 cells. The series is described as follows: Inhibition of LPS induced NO generation (nitrite, Griess reagent). The series is classed as cell-based, Mouse. The settings on record: for IC50: Mus musculus, read-out: NO inhibition (B) IC50; for Selectivity index (A/B): cytotoxicity IC50 / NO inhibition IC50, RAW 264.7 cells. The procedure:
as §1, §2
Nitrite, a stable oxidized product of NO, was measured in culture supernatant using Griess reagent (Sigma Aldrich) according to a previously reported method (2). After overnight seeding in 96-well plate (2×10^4 cells/well), RAW 264.7 cell was treated with lipopolysaccharide (LPS; Sigma) at a concentration of 1 μg/ml along with different doses of compounds (as determined from cytotoxicity assay) in serum-free culture for 24 h. Following treatment, media was collected and centrifuged at 2,000 rpm for 5 min to remove cellular debris. 50 μl of this media was then reacted with equal volume of Griess reagent for 15 min at room temperature in dark and absorbance was taken at 540 nm using Microplate reader (Biorad, USA). Nitrite concentrations were determined using standard solutions of sodium nitrite prepared in cell culture medium.
A general note: The Griess reaction detects nitrite, a stable product of nitric oxide.

[3] abbreviates: RAW264.7, RAW 264.7 cells, LPS 1 μg/ml, 24 h, serum-free.

Where two headings read alike, the source gives them in different places.

What is called IC50 is the concentration at which inhibition is half-maximal. As for `O=C(S[C@@]12CC[C@@H](O)[C@@H]1C(=O)NC2=O)c1cccs1` (relative stereo) [Compound 12, S-((3aS*,6R*,6aR*)-6-Hydroxy-1,3-dioxohexahydrocyclopenta[c]pyrrol-3a(1H)-yl) thiophene-2-carbothioate], the midpoint of inhibition in series [1], the IC50 at 24 h, lay at 10900 µM. For the same molecule, in series [2] (setting [3]), the IC50 turned out to be 36.6 µM. Besides, the “Selectivity index (A/B)” value in series [2] is on record as 297.0519.
As to `CC(=O)S[C@]12CC[C@@H](O)[C@H]1C(=O)NC2=O` (relative stereo) [Compound 7, S-((3aR*,6R*,6aS*)-6-Hydroxy-1,3-dioxohexahydrocyclopenta[c]pyrrol-3a(1H)-yl) ethanethioate], in series [1], the IC50 at 24 h worked out at 558 µM. In series [2] (setting [3]), the IC50 turned out to be 148 µM. Besides, the “Selectivity index (A/B)” value in series [2] was found to be 3.7762.
`O=C1NC(=O)C2=C1CCC2O` (stereo in doubt) [(−)-4, (R)-4-Hydroxy-5,6-dihydrocyclopenta[c]pyrrole-1,3(2H,4H)-dione]: in series [1], half-maximal inhibition (IC50 at 24 h) required 319 µM. For the same molecule, the IC50 in series [2] (setting [3]) came out at 121 µM. Besides, the “Selectivity index (A/B)” value in series [2] is recorded as 2.631.
On the same counts, the results for `CC(=O)OC1CC[C@]2(SC(=O)c3ccccc3Cl)C(=O)NC(=O)[C@H]12` (relative stereo) [Compound 34, (3aS*,6aR*)-6a-((2-Chlorobenzoyl)thio)-1,3-dioxooctahydrocyclopenta[c]pyrrol-4-yl acetate] are 9080 µM, 101 µM and 89.51.
`CC(=O)OC1CCC2=C1C(=O)NC2=O` (racemic) [Compound 5, 1,3-dioxo-1,2,3,4,5,6-hexahydrocyclopenta[c]pyrrol-4-yl acetate] registered an IC50 at 24 h in series [1] of 616 µM. For the same molecule, in series [2] (setting [3]), the IC50 is 42 µM. Besides, in series [2], the “Selectivity index (A/B)” value is recorded as 14.67.
`CC(=O)OC1CC[C@]2(SC(=O)c3ccccc3)C(=O)NC(=O)[C@H]12` (relative stereo) [Compound 35, (3aS*,6aR*)-6a-(Benzoylthio)-1,3-dioxooctahydrocyclopenta[c]pyrrol-4-yl acetate] came in with an IC50 at 24 h in series [1] of 1910 µM. Moreover, in series [2] (setting [3]), the half-inhibitory concentration (IC50) is 64.3 µM. Also, the “Selectivity index (A/B)” value in series [2] was 29.74.
On the same counts, the results for `O=C(S[C@]12CC[C@H](O)[C@H]1C(=O)NC2=O)c1ccc(O)cc1` [(−)-2, S-((3aR,6S,6aS)-6-hydroxy-1,3-dioxohexahydrocyclopenta[c]pyrrol-3a(1H)-yl) 4-hydroxybenzothioate] are 1380 µM, 140 µM and 9.85.
For `O=C1NC(=O)C2=C1CCC2O` (stereo in doubt) [(+)-4, (S)-4-Hydroxy-5,6-dihydrocyclopenta[c]pyrrole-1,3(2H,4H)-dione] the same measures were 217 µM, 95.9 µM and 2.26.
For `O=C(S[C@@]12CC[C@H](O)[C@@H]1C(=O)NC2=O)c1ccc(O)cc1` [(+)-1, S-((3aS,6S,6aR)-6-hydroxy-1,3-dioxohexahydrocyclopenta[c]pyrrol-3a(1H)-yl) 4-hydroxybenzothioate] the same measures were 1020 µM, 71.8 µM and 14.14.
`CC(=O)SC1CC[C@]2(SC(C)=O)C(=O)NC(=O)[C@H]12` (relative stereo) [Compound 28, S,S′-((3aR*,6aR*)-1,3-Dioxohexahydrocyclopenta[c]pyrrole-3a,6(1H)-diyl) diethanethioate]: the IC50 at 24 h in series [1] was 10000 µM. For the same molecule, in series [2] (RAW264.7, 24 h), the concentration for half-maximal inhibition (IC50) was 19.8 µM. In addition, the “Selectivity index (A/B)” value in series [2] is recorded as 505.4343.
Regarding `O=C(S)c1ccc(O)cc1` [Compound 6, 4-hydroxybenzothioic S-acid], in series [1], the IC50 at 24 h turned out to be 2910 µM. Moreover, the IC50 in series [2] (setting [3]) is 127 µM. Also, the “Selectivity index (A/B)” value in series [2] is 22.99.
